Data: publication PMC4138103 (PLoS ONE, 2014)

Test system: Sprague-Dawley rats
Test: Hematology
Type: in vivo, Rattus norvegicus
Set-up: key to Dose response, MCH / Dose response, MCHC / Dose response, PLT / Dose response, MCV: D: significant dose response (for results, see Table 2); T: significant trend; HCT, Hematocrit: unit not given here
Conditions: for RBC, Red cell count / HCT, Hematocrit / Basophils / Eosinophils / HB, Hemoglobin / Lymphocytes / MCH, Mean corpuscular hemoglobin / MCHC, Mean corpuscular hemoglobin concentration / MCV, Mean corpuscular volume / MPV, Mean platelet volume / Monocytes / Neutrophils / PDW, Platelet distribution width / PLT, Platelet count / WBC, Leukocyte total count: group mean; for RBC, CED: adipose tissue concentration based
Description: Basic blood picture analysis was carried out using Advia 120 analyzer (Bayer, later Siemens Diagnostic Division, Dublin, Ireland). This analysis includes red cell count (RBC), hemoglobin (HB), hematocrit (HCT), platelet count (PLT), leukocyte total count (WBC) and differential count as well as the calculated red cell and platelet parameters mean corpuscular volume (MCV), mean corpuscular hemoglobin (MCH), mean corpuscular hemoglobin concentration (MCHC), red cell distribution width - standard deviation (RDW-SD), platelet distribution width (PDW) and mean platelet volume (MPV). Blood cell counting is based on isovolumetric sphering and fixing the cells, stains and light scattering. Visual leukocyte differential counting was done after May-Grünwald-Giemsa staining.
Data were also analyzed using the BMD method, which is based on dose-response modeling of the full data set using a nested family of exponential and Hill models. The analyses were done on data of males and females combined, using sex as a covariate. […] In that case, different Critical Effect Doses (CEDs) and CEDs at the lowest bound of the confidence interval (CED-L) were generated for each sex. If no difference between sexes is detected, a CED and CED-Ls for the combined data is generated. However, this was also done if the curve fits are close, and separate analyses for males and females were then performed manually. CEDs and CED-Ls were calculated at the predefined Critical Effect Size (CES) of 5% (EFSA standard) or 10%.

[1] = females, total doses 0-1700 mg/kg bw
[2] = females, CES 5%, total dose based
[3] = females, CES 10%, total dose based
[4] = males, total dose 3 mg/kg bw, N=5
[5] = males, total dose 10 mg/kg bw, N=5
[6] = males, total dose 30 mg/kg bw, N=5
[7] = males, total dose 100 mg/kg bw, N=5
[8] = males, total dose 300 mg/kg bw, N=5
[9] = males, total dose 300 mg/kg bw, N=5, p<0.01 vs. control
[10] = males, total dose 1000 mg/kg bw, N=5
[11] = males, total dose 1000 mg/kg bw, N=5, p<0.001 vs. control
[12] = males, total dose 1700 mg/kg bw, N=5
[13] = males, total dose 1700 mg/kg bw, N=5, p<0.001 vs. control
[14] = males, total doses 0-1700 mg/kg bw
[15] = males, CES 5%, total dose based
[16] = males, CES 10%, total dose based

Clc1cc(Cl)c(-c2cc(Cl)c(Cl)c(Cl)c2Cl)cc1Cl [PCB 180, 2,2′,3′,4,4′,5,5′-heptachlorobiphenyl]
RBC, Red cell count (females, total dose 1700 mg/kg bw, N=5, p<0.001 vs. control): 6.43e+12 L⁻¹
HCT, Hematocrit (females, total dose 1700 mg/kg bw, N=5, p<0.01 vs. control): 0.41
Dose response, HB [1]: D, T
Dose response, HCT [1]: D, T
Dose response, MCV [1]: T
Dose response, RBC [1]: D, T
Hematocrit, CED [2]: 832 mg/kg bw
Hematocrit, CED-L [2]: 646 mg/kg bw
Hemoglobin, CED [2]: 739 mg/kg bw
Hemoglobin, CED-L [2]: 600 mg/kg bw
Red blood cell count, CED [2]: 638 mg/kg bw
Red blood cell count, CED-L [2]: 514 mg/kg bw
Red cell distribution width - SD, CED [2]: 1400 mg/kg bw
Red cell distribution width - SD, CED-L [2]: 1093 mg/kg bw
Hematocrit, CED [3]: 1710 mg/kg bw
Hematocrit, CED-L [3]: 1327 mg/kg bw
Hemoglobin, CED [3]: 1520 mg/kg bw
Hemoglobin, CED-L [3]: 1233 mg/kg bw
Red blood cell count, CED [3]: 1310 mg/kg bw
Red blood cell count, CED-L [3]: 1056 mg/kg bw
Red cell distribution width - SD, CED [3]: 1650 mg/kg bw
Red cell distribution width - SD, CED-L [3]: 1498 mg/kg bw
RBC, CED (females): 4170 µg/g lipid
Basophils [4]: 0.0%
Eosinophils [4]: 0.6%
HB, Hemoglobin [4]: 179 g/L
HCT, Hematocrit [4]: 0.52
Lymphocytes [4]: 87%
MCH, Mean corpuscular hemoglobin [4]: 21.9 pg
MCHC, Mean corpuscular hemoglobin concentration [4]: 346 g/L
MCV, Mean corpuscular volume [4]: 63.4 fL
MPV, Mean platelet volume [4]: 7.16 fL
Monocytes [4]: 4.4%
Neutrophils [4]: 8.0%
PDW, Platelet distribution width [4]: 7.66 fL
PLT, Platelet count [4]: 8.36e+11 L⁻¹
RBC, Red cell count [4]: 8.18e+12 L⁻¹
WBC, Leukocyte total count [4]: 1.896e+10 L⁻¹
Basophils [5]: 0.2%
Eosinophils [5]: 0.6%
HB, Hemoglobin [5]: 171 g/L
HCT, Hematocrit [5]: 0.49
Lymphocytes [5]: 84.6%
MCH, Mean corpuscular hemoglobin [5]: 22.02 pg
MCHC, Mean corpuscular hemoglobin concentration [5]: 350 g/L
MCV, Mean corpuscular volume [5]: 63.0 fL
MPV, Mean platelet volume [5]: 6.96 fL
Monocytes [5]: 4.4%
Neutrophils [5]: 10.2%
PDW, Platelet distribution width [5]: 7.54 fL
PLT, Platelet count [5]: 8.27e+11 L⁻¹
RBC, Red cell count [5]: 7.79e+12 L⁻¹
WBC, Leukocyte total count [5]: 1.674e+10 L⁻¹
Basophils [6]: 0.0%
Eosinophils [6]: 0.6%
HB, Hemoglobin [6]: 170 g/L
HCT, Hematocrit [6]: 0.49
Lymphocytes [6]: 87.8%
MCH, Mean corpuscular hemoglobin [6]: 22 pg
MCHC, Mean corpuscular hemoglobin concentration [6]: 349 g/L
MCV, Mean corpuscular volume [6]: 63.1 fL
MPV, Mean platelet volume [6]: 6.92 fL
Monocytes [6]: 4.2%
Neutrophils [6]: 7.4%
PDW, Platelet distribution width [6]: 7.44 fL
PLT, Platelet count [6]: 8.6e+11 L⁻¹
RBC, Red cell count [6]: 7.73e+12 L⁻¹
WBC, Leukocyte total count [6]: 1.7e+10 L⁻¹
Basophils [7]: 0.0%
Eosinophils [7]: 0.6%
HB, Hemoglobin [7]: 170 g/L
HCT, Hematocrit [7]: 0.48
Lymphocytes [7]: 87.8%
MCH, Mean corpuscular hemoglobin [7]: 22.18 pg
MCHC, Mean corpuscular hemoglobin concentration [7]: 352 g/L
MCV, Mean corpuscular volume [7]: 63.1 fL
MPV, Mean platelet volume [7]: 7.28 fL
Monocytes [7]: 4.4%
Neutrophils [7]: 7.2%
PDW, Platelet distribution width [7]: 7.90 fL
PLT, Platelet count [7]: 8.93e+11 L⁻¹
RBC, Red cell count [7]: 7.65e+12 L⁻¹
WBC, Leukocyte total count [7]: 1.654e+10 L⁻¹
Basophils [8]: 0.0%
Eosinophils [8]: 1.0%
HB, Hemoglobin [8]: 165 g/L
Lymphocytes [8]: 85.8%
MCH, Mean corpuscular hemoglobin [8]: 22.38 pg
MCHC, Mean corpuscular hemoglobin concentration [8]: 351 g/L
MCV, Mean corpuscular volume [8]: 63.8 fL
MPV, Mean platelet volume [8]: 7.12 fL
Monocytes [8]: 5.2%
Neutrophils [8]: 8.0%
PDW, Platelet distribution width [8]: 7.66 fL
PLT, Platelet count [8]: 9.4e+11 L⁻¹
WBC, Leukocyte total count [8]: 2.076e+10 L⁻¹
HCT, Hematocrit [9]: 0.47
RBC, Red cell count [9]: 7.38e+12 L⁻¹
Basophils [10]: 0.0%
Eosinophils [10]: 1.0%
Lymphocytes [10]: 86.8%
MCH, Mean corpuscular hemoglobin [10]: 22.94 pg
MCV, Mean corpuscular volume [10]: 63.2 fL
MPV, Mean platelet volume [10]: 7.04 fL
Monocytes [10]: 3.6%
Neutrophils [10]: 8.6%
PDW, Platelet distribution width [10]: 7.60 fL
PLT, Platelet count [10]: 8.85e+11 L⁻¹
WBC, Leukocyte total count [10]: 1.798e+10 L⁻¹
HCT, Hematocrit [11]: 0.44
RBC, Red cell count [11]: 6.99e+12 L⁻¹
MCHC, Mean corpuscular hemoglobin concentration (males, total dose 1000 mg/kg bw, N=5, p<0.01 vs. control): 364 g/L
HB, Hemoglobin (males, total dose 1000 mg/kg bw, N=5, p<0.05 vs. control): 161 g/L
Basophils [12]: 0.4%
Eosinophils [12]: 0.4%
Lymphocytes [12]: 87.2%
MCH, Mean corpuscular hemoglobin [12]: 22.78 pg
MCHC, Mean corpuscular hemoglobin concentration [12]: 355 g/L
MCV, Mean corpuscular volume [12]: 64.2 fL
MPV, Mean platelet volume [12]: 7.08 fL
Monocytes [12]: 5.4%
Neutrophils [12]: 6.6%
PDW, Platelet distribution width [12]: 7.54 fL
PLT, Platelet count [12]: 9.37e+11 L⁻¹
WBC, Leukocyte total count [12]: 1.68e+10 L⁻¹
HCT, Hematocrit [13]: 0.45
RBC, Red cell count [13]: 6.99e+12 L⁻¹
HB, Hemoglobin (males, total dose 1700 mg/kg bw, N=5, p<0.01 vs. control): 159 g/L
Dose response, HB [14]: D, T
Dose response, HCT [14]: D, T
Dose response, MCH [14]: T
Dose response, MCHC [14]: T
Dose response, PLT [14]: T
Dose response, RBC [14]: D, T
Hematocrit, CED [15]: 140 mg/kg bw
Hematocrit, CED-L [15]: 66.3 mg/kg bw
Hemoglobin, CED [15]: 201 mg/kg bw
Hemoglobin, CED-L [15]: 62.8 mg/kg bw
Platelet count, CED [15]: 40.7 mg/kg bw
Platelet count, CED-L [15]: 9.68 mg/kg bw
Red blood cell count, CED [15]: 138 mg/kg bw
Red blood cell count, CED-L [15]: 82.2 mg/kg bw
Hematocrit, CED [16]: 481 mg/kg bw
Platelet count, CED [16]: 143 mg/kg bw
Red blood cell count, CED [16]: 436 mg/kg bw
Red blood cell count, CED-L [16]: 252 mg/kg bw
RBC, CED (males): 598 µg/g lipid
